Key:
[1] = Thermodynamic water solubility; assay type: physicochemical
[2] = Log D partition coefficient, CHI method; assay type: physicochemical
Method: The Log D partition coefficient was measured using the CHI method.

[3] = system: Septoria tritici (SEPTTR); experiment: Evaluation of fungicidal activity: leaf blotch of wheat, disease control on wheat seedlings; assay type: in vivo; conditions: for 3DC % control / 3DP % Control: wheat (variety Yuma) seedlings; for fungicidal activity against the fungi responsible for leaf blotch of wheat (Septoria tritici): in comparison with example 5 of U.S. Pat. No. 8,748,461
Method: Example 3: Evaluation of Fungicidal Activity: Leaf Blotch of Wheat (Mycosphaerella graminicola; Anamorph: Septoria tritici; Bayer code […]) Technical grades of materials were dissolved in acetone, which were then mixed with nine volumes of water containing 110 ppm Triton X-100. The fungicide solutions were applied onto wheat seedlings using an automated booth sprayer to run-off. All sprayed plants were allowed to air dry prior to further handling. Wheat plants (variety Yuma) were grown from seed in a greenhouse in 50% mineral soil/50% soil-less Metro mix until the first leaf was fully emerged, with 7-10 seedlings per pot. These plants were inoculated with an aqueous spore suspension of Septoria tritici either prior to or after fungicide treatments. After inoculation the plants were kept in 100% relative humidity (one day in a dark dew chamber followed by two to three days in a lighted dew chamber at 20° C.) to permit spores to germinate and infect the leaf. The plants were then transferred to a greenhouse set at 20° C. for disease to develop. When disease symptoms were fully expressed on the 1st leaves of untreated plants, infection levels were assessed on a scale of 0 to 100 percent disease severity. Percent disease control was calculated using the ratio of disease severity on treated plants relative to untreated plants.

N#Cc1ccc(Oc2ccc(C(F)(F)C(O)(Cn3cncn3)c3ccc(F)cc3F)nc2)cc1 (stereo not drawn) [Example 1, 4-((6-(2-(2,4-difluorophenyl)-1,1-difluoro-2-hydroxy-3-(1H-1,2,4-triazol-1-yl)propyl)pyridin-3-yl)oxy)benzonitrile]
H2O solubility (ppm) (thermodynamic) [1]: 37.33 ppm
chromatographic logD [2]: 2.9
3DC % control ([3]; 6.25 g/ha): 100%
3DC % control ([3]; 25 g/ha): 100%
3DC % control ([3]; 100 g/ha): 100%
3DC % control ([3]; rate g/ha): 99%
3DP % Control ([3]; 1.56 g/ha): 96%
3DP % Control ([3]; 6.25 g/ha): 96%
3DP % Control ([3]; 25 g/ha): 96%
3DP % Control ([3]; 100 g/ha): 100%
fungicidal activity against the fungi responsible for leaf blotch of wheat (Septoria tritici) [3]: improved fungicidal activity

N#Cc1ccc(Oc2ccc(C(F)(F)C(O)(Cn3ncnc3S)c3ccc(F)cc3F)nc2)cc1 (stereo not drawn) [Example 2, 4-((6-(2-(2,4-difluorophenyl)-1,1-difluoro-2-hydroxy-3-(5-thioxo-4,5-dihydro-1H-1,2,4-triazol-1-yl)propyl)pyridin-3-yl)oxy)benzonitrile]
H2O solubility (ppm) (thermodynamic) [1]: 23.04 ppm
chromatographic logD [2]: 2.83
3DC % control ([3]; 6.25 g/ha): 94%
3DC % control ([3]; 25 g/ha): 99%
3DC % control ([3]; 100 g/ha): 100%
3DC % control ([3]; rate g/ha): 80%
3DP % Control ([3]; 1.56 g/ha): 94%
3DP % Control ([3]; 6.25 g/ha): 98%
3DP % Control ([3]; 25 g/ha): 100%
3DP % Control ([3]; 100 g/ha): 100%
fungicidal activity against the fungi responsible for leaf blotch of wheat (Septoria tritici) [3]: improved fungicidal activity

N#Cc1ccc(Oc2ccc(C(F)(F)C(O)(Cn3cnnn3)c3ccc(F)cc3F)nc2)cc1 (stereo not drawn) [Example 5*, 4-(6-(2-(2,4-difluorophenyl)-1,1-difluoro-2-hydroxy-3-(1H-tetrazol-1-yl)propyl)pyridin-3-yloxy)benzonitile, reference compound]
H2O solubility (ppm) (thermodynamic) [1]: 28.39 ppm
chromatographic logD [2]: 3.02
3DC % control ([3]; 6.25 g/ha): 34%
3DC % control ([3]; 25 g/ha): 47%
3DC % control ([3]; 100 g/ha): 58%
3DC % control ([3]; rate g/ha): 22%
3DP % Control ([3]; 1.56 g/ha): 22%
3DP % Control ([3]; 6.25 g/ha): 36%
3DP % Control ([3]; 25 g/ha): 50%
3DP % Control ([3]; 100 g/ha): 64%

OC(Cn1cncn1)(c1ccc(F)cc1F)C(F)(F)c1ccc(OCc2cccc(F)c2F)cn1 (stereo not drawn) [Example 45*, reference compound]
H2O solubility (ppm) (thermodynamic) [1]: 5.15 ppm
chromatographic logD [2]: 3.32
3DC % control ([3]; 6.25 g/ha): 86%
3DC % control ([3]; 25 g/ha): 85%
3DC % control ([3]; 100 g/ha): 86%
3DC % control ([3]; rate g/ha): 78%
3DP % Control ([3]; 1.56 g/ha): 58%
3DP % Control ([3]; 6.25 g/ha): 89%
3DP % Control ([3]; 25 g/ha): 93%
3DP % Control ([3]; 100 g/ha): 95%

— US11051514B2, “Antifungal compounds” (Mycovia Pharmaceuticals, Inc., priority 2015, dated 2021)
